Measured values reported in US20220096538A1, “PHARMACEUTICAL COMPOSITIONS AND METHODS FOR PREVENTION AND/OR TREATMENT OF INFLAMMATION” (priority 2020, published 2022).
Values joined by “and” are separate entries in the source; they are usually repeats but may differ in a detail not shown here. Equal entries are not always repeated.

Tests used:
[1] = cited from earlier work; for Approximate Equivalent Dose: equivalent to 0.75 mg dexamethasone
LPS-GalN challenged mice = test: LPS-GalN model of fatal cytokine storm and sepsis, treatment 2 h post LPS-GalN: 24 h survival
[2] = system: LPS-GalN induced liver injury; test: LPS-GalN model, treatment 2 h post LPS-GalN: liver histopathological score
[3] = system: LPS-GalN induced acute lung injury; test: LPS-GalN model, treatment 2 h post LPS-GalN: lung histopathological (ALI) score; settings: for Mean±SE ALI score: scale 0 to 4
[4] = DEX 0.1 mg/kg i.p. 2 h post LPS-GalN, n=6
[5] = DEX 0.6 mg/kg i.p. 2 h post LPS-GalN, n=6
[6] = DEX 6.0 mg/kg i.p. 2 h post LPS-GalN, n=6
[7] = RJX 0.7 ml/kg, DEX 0.6 mg/kg, alone or combined, 2 h post LPS-GalN
[8] = low dose RJX, standard dose DEX, alone or combined, 2 h post LPS-GalN

## C[C@]12CCC(=O)C=C1CC[C@@H]1[C@@H]2C(=O)C[C@@]2(C)[C@H]1CC[C@]2(O)C(=O)CO [Cortisone]
[1]
  Approximate Equivalent Dose: 25 mg

## C[C@@H]1C[C@H]2[C@@H]3CCC4=CC(=O)C=C[C@]4(C)[C@@]3(F)[C@@H](O)C[C@]2(C)[C@@]1(O)C(=O)CO [DEX, dexamethasone]
LPS-GalN challenged mice; [4]
  Censored: 1
  Events: 5
  Median (survival): 5.1 h
  Proportion (events; 24-h mortality): 83.3%
LPS-GalN challenged mice; [5]
  Censored: 3
  Events: 3
  Median (survival): 15.0 h
  Proportion (events; mortality): 50.0%
LPS-GalN challenged mice; [6]
  Censored: 4
  Events: 2
  Proportion (events; mortality): 33.3%
LPS-GalN challenged mice; RJX 0.7 ml/kg (6-fold diluted 4.2 mL/kg), DEX 0.6 mg/kg, alone or combined, 2 h post LPS-GalN
  Censored: 5
LPS-GalN challenged mice; [7]
  Events: 5
  Median (survival): 17.6 h
  Proportion (events): 50.0%
[2]; DEX 0.1 mg/kg
  histopathological liver damage score (Mean±SE): 3.3±0.2
[2]; DEX 0.6 mg/kg
  histopathological liver damage score (Mean±SE): 2.7±0.2
  liver score median: 3
[2]; DEX 6.0 mg/kg
  histopathological liver damage score (Mean±SE): 2.3±0.2
  liver score median: 3
[2]; DEX (0.1)
  liver histopathological scores, range: 3-4
[2]; [8]
  Liver Histopathological Score: ≥3 (severe damage or more), percent of mice: 50%
[3]; DEX 0.1 mg/kg
  lung histopathological ALI score, Median: 3.5
  lung histopathological ALI scores, range: 3-4
  Mean±SE ALI score: 3.5±0.2
[3]; DEX 0.6 mg/kg
  lung histopathological ALI score, Median: 3
  lung histopathological ALI scores, range: 2-4
  Mean±SE ALI score: 2.8±0.3
[3]; DEX 6.0 mg/kg
  lung histopathological ALI score, Median: 2
  lung histopathological ALI scores, range: 1-3
  Mean±SE ALI score: 1.8±0.3
[3]; [8]
  Lung Histopathological Score: ≥3 (severe damage or more), percent of mice: 50%
[3]; single dose at 2 hours post-LPS-GalN, sacrificed at 24 hours, low dose RJX, high dose DEX or both
  ALI score of a representative mouse: 2

## C[C@]12CCC(=O)C=C1CC[C@H]1[C@@H]3CC[C@](O)(C(=O)CO)[C@@]3(C)C[C@H](O)[C@@]12F [Fludrocortisone]
[1]
  Anticipated Half-life: 12 to 26 h and 12 to 36 h

## C[C@]12CCC(=O)C=C1CC[C@@H]1[C@@H]2[C@@H](O)C[C@@]2(C)[C@H]1CC[C@]2(O)C(=O)CO [Hydrocortisone]
[1]
  Approximate Equivalent Dose: 20 mg

## C[C@]12C=CC(=O)C=C1CC[C@@H]1[C@@H]2[C@@H](O)C[C@@]2(C)[C@H]1CC[C@]2(O)C(=O)CO [Prednisolone]
[1]
  Approximate Equivalent Dose: 5 mg

## C[C@]12C=CC(=O)C=C1CC[C@H]1[C@@H]3C[C@@H](O)[C@](O)(C(=O)CO)[C@@]3(C)C[C@H](O)[C@@]12F [Triamcinolone]
[1]
  Approximate Equivalent Dose: 4 mg
